Measurements from PubChem BioAssay AID216 (DTP/NCI, 2004).
“And” between values parts separate entries of the source, which are not always exact repeats. Equal values may be shown once. Inconclusive results and toxic doses are left out.

Test system: BDF1 mice, P288 leukemia ip, survival T/C
Experiment: NCI In Vivo Anticancer Drug Screen. Data for tumor model P288 Lymphocytic Leukemia (intraperitoneal) in B6D2F1 (BDF1) mice
Details: endpoint: survival time, mean or median, higher = longer survival
Protocol: The antitumor activity of compounds was measured in mice bearing transplantable tumors. Survival or tumor size were measured and the results are expressed as the measurement made in the treated group (T) divided by the measurement made in the vehicle treated control group (C). The tumor model used in this assay is P288 Lymphocytic Leukemia (intraperitoneal) in B6D2F1 (BDF1) mice

[1] = dose: 6.25 mg/kg/injection, schedule: Q01DX Z (ip), vehicle: carboxymethylcellulose (CMC)
[2] = dose: 12.5 mg/kg/injection, schedule: Q01DX Z (ip), vehicle: carboxymethylcellulose (CMC)
[3] = dose: 25.0 mg/kg/injection, schedule: Q01DX Z (ip), vehicle: carboxymethylcellulose (CMC)
[4] = dose: 10.0 mg/kg/injection, schedule: Q01DX010 (ip), vehicle: saline
[5] = dose: 12.0 mg/kg/injection, schedule: Q01DX010 (ip), vehicle: saline
[6] = dose: 40.0 mg/kg/injection, schedule: Q01DX010 (ip), vehicle: saline
[7] = dose: 250.0 mg/kg/injection, schedule: Q01DX010 (ip), vehicle: saline
[8] = dose: 500.0 mg/kg/injection, schedule: Q01DX010 (ip), vehicle: saline

In the case of O=c1[nH]c(=O)n(C2CC(O)C(CO)O2)cc1Br (stereo unspecified), the T/C (dose: 6.5 mg/kg/injection, schedule: Q01DX Z (ip), vehicle: carboxymethylcellulose (CMC)) is reported as 96 % of control, the T/C (dose: 8.0 mg/kg/injection, schedule: Q01DX Z (ip), vehicle: carboxymethylcellulose (CMC)) is reported as 95 % of control and the T/C (dose: 13.0 mg/kg/injection, schedule: Q01DX Z (ip), vehicle: carboxymethylcellulose (CMC)) is reported as 107 % of control. The T/C (dose: 26.0 mg/kg/injection, schedule: Q01DX Z (ip), vehicle: carboxymethylcellulose (CMC)) was 102 % of control and the T/C (dose: 31.0 mg/kg/injection, schedule: Q01DX Z (ip), vehicle: carboxymethylcellulose (CMC)) was 90 % of control.

With O=C(Nc1ccc(C2=NCCN2)cc1)c1ccc(C(=O)Nc2ccc(C3=NCCN3)cc2)cc1 the T/C (dose: 3.12 mg/kg/injection, schedule: Q01DX Z (ip), vehicle: carboxymethylcellulose (CMC)) was 107 % of control, the T/C [1] was 94 % of control and the T/C (dose: 8.0 mg/kg/injection, schedule: Q01DX010 (ip), vehicle: other) was 158 % of control and 188 % of control. The T/C [2] was 102 % of control, the T/C (dose: 16.0 mg/kg/injection, schedule: Q01DX010 (ip), vehicle: other) was 195 % of control and the T/C [3] was 102 % of control. For the same compound, the T/C (dose: 32.0 mg/kg/injection, schedule: Q01DX010 (ip), vehicle: other) was 154 % of control, the T/C (dose: 50.0 mg/kg/injection, schedule: Q01DX Z (ip), vehicle: carboxymethylcellulose (CMC)) was 102 % of control and the T/C (dose: 100.0 mg/kg/injection, schedule: Q01DX Z (ip), vehicle: carboxymethylcellulose (CMC)) was 204 % of control. For the same compound, the T/C (dose: 200.0 mg/kg/injection, schedule: Q01DX Z (ip), vehicle: carboxymethylcellulose (CMC)) was 186 % of control.

With CC/C(=C(/CC)c1ccc(O)cc1)c1ccc(O)cc1 the T/C (dose: 1.0 mg/kg/injection, schedule: Q01DX Z (sc), vehicle: steriod suspending solution) was 100 % of control, the T/C (dose: 2.0 mg/kg/injection, schedule: Q01DX Z (sc), vehicle: steriod suspending solution) was 103 % of control and the T/C (dose: 4.0 mg/kg/injection, schedule: Q01DX Z (sc), vehicle: steriod suspending solution) was 97 % of control. For the same compound, the T/C (dose: 8.0 mg/kg/injection, schedule: Q01DX Z (sc), vehicle: steriod suspending solution) was 118 % of control, the T/C (dose: 12.5 mg/kg/injection, schedule: Q01DX010 (sc), vehicle: steriod suspending solution) was 100 % of control and the T/C (dose: 16.0 mg/kg/injection, schedule: Q01DX Z (sc), vehicle: steriod suspending solution) was 118 % of control. For the same compound, the T/C (dose: 25.0 mg/kg/injection, schedule: Q01DX010 (sc), vehicle: steriod suspending solution) was 106 % of control, the T/C (dose: 31.0 mg/kg/injection, schedule: Q01DX Z (sc), vehicle: steriod suspending solution) was 103 % of control and the T/C (dose: 50.0 mg/kg/injection, schedule: Q01DX010 (sc), vehicle: steriod suspending solution) was 112 % of control and 121 % of control. For the same compound, the T/C (dose: 62.0 mg/kg/injection, schedule: Q01DX Z (sc), vehicle: steriod suspending solution) was 97 % of control, the T/C (dose: 100.0 mg/kg/injection, schedule: Q01DX010 (sc), vehicle: steriod suspending solution) was 114 % of control and 100 % of control and the T/C (dose: 125.0 mg/kg/injection, schedule: Q01DX Z (sc), vehicle: steriod suspending solution) was 91 % of control. The T/C (dose: 250.0 mg/kg/injection, schedule: Q01DX Z (sc), vehicle: steriod suspending solution) was 101 % of control.

With N#[N+]c1cnc([O-])[nH]c1=O the T/C (dose: 0.63 mg/kg/injection, schedule: Q01DX Z (ip), vehicle: carboxymethylcellulose (CMC)) was 112 % of control, the T/C (dose: 1.25 mg/kg/injection, schedule: Q01DX010 (ip), vehicle: saline) was 105 % of control and the T/C (dose: 1.25 mg/kg/injection, schedule: Q01DX Z (ip), vehicle: carboxymethylcellulose (CMC)) was 117 % of control. The T/C (dose: 2.5 mg/kg/injection, schedule: Q01DX010 (ip), vehicle: saline) was 104 % of control and the T/C [4] was 155 % of control.

CN(C)c1ccc(/C=C\c2ccnc3ccccc23)cc1 was tested, and the T/C (dose: 6.25 mg/kg/injection, schedule: Q01DX Z (ip), vehicle: water) was 98 % of control, the T/C [5] was 88 % of control and the T/C (dose: 12.5 mg/kg/injection, schedule: Q01DX Z (ip), vehicle: water) was 98 % of control. The T/C (dose: 18.0 mg/kg/injection, schedule: Q01DX010 (ip), vehicle: saline) was 88 % of control, the T/C (dose: 25.0 mg/kg/injection, schedule: Q01DX Z (ip), vehicle: water) was 100 % of control and the T/C (dose: 27.0 mg/kg/injection, schedule: Q01DX010 (ip), vehicle: saline) was 94 % of control. The T/C [6] was 88 % of control, the T/C (dose: 50.0 mg/kg/injection, schedule: Q01DX Z (ip), vehicle: water) was 105 % of control and the T/C (dose: 100.0 mg/kg/injection, schedule: Q01DX Z (ip), vehicle: water) was 108 % of control. For the same compound, the T/C (dose: 200.0 mg/kg/injection, schedule: Q01DX Z (ip), vehicle: water) was 90 % of control.

With CCOC(N)=O the T/C (dose: 125.0 mg/kg/injection, schedule: Q01DX010 (ip), vehicle: saline) was 110 % of control and 94 % of control, the T/C [7] was 94 % of control and the T/C [8] was 94 % of control.

In the case of Cc1cc(N(CCCl)CCCl)ccc1N=Nc1ccccc1C(=O)O, the T/C (dose: 0.45 mg/kg/injection, schedule: Q01DX Z (ip), vehicle: carboxymethylcellulose (CMC)) is reported as 108 % of control, the T/C (dose: 0.9 mg/kg/injection, schedule: Q01DX Z (ip), vehicle: carboxymethylcellulose (CMC)) is reported as 105 % of control and the T/C (dose: 1.8 mg/kg/injection, schedule: Q01DX Z (ip), vehicle: carboxymethylcellulose (CMC)) is reported as 104 % of control. For the same compound, the T/C (dose: 3.75 mg/kg/injection, schedule: Q01DX Z (ip), vehicle: carboxymethylcellulose (CMC)) was 101 % of control, the T/C (dose: 5.0 mg/kg/injection, schedule: Q01DX010 (ip), vehicle: saline) was 88 % of control and 90 % of control and the T/C (dose: 7.5 mg/kg/injection, schedule: Q01DX Z (ip), vehicle: carboxymethylcellulose (CMC)) was 108 % of control. For the same compound, the T/C [4] was 90 % of control and 94 % of control, the T/C (dose: 20.0 mg/kg/injection, schedule: Q01DX010 (ip), vehicle: saline) was 105 % of control and 90 % of control and the T/C [6] was 94 % of control.

In the case of O=CCC(O)C(O)C(O)CO (stereo unspecified), the T/C (dose: 16.0 mg/kg/injection, schedule: Q01DX Z (ip), vehicle: carboxymethylcellulose (CMC)) is reported as 120 % of control, the T/C (dose: 62.5 mg/kg/injection, schedule: Q01DX Z (ip), vehicle: carboxymethylcellulose (CMC)) is reported as 113 % of control and the T/C (dose: 125.0 mg/kg/injection, schedule: Q01DX Z (ip), vehicle: carboxymethylcellulose (CMC)) is reported as 120 % of control. The T/C [7] was 90 % of control and 100 % of control and the T/C [8] was 100 % of control.

In the case of Nc1ncnc2[nH]ncc12, the T/C (dose: 1.5 mg/kg/injection, schedule: Q01DX010 (ip), vehicle: saline) is reported as 93 % of control and 100 % of control, the T/C (dose: 3.0 mg/kg/injection, schedule: Q01DX010 (ip), vehicle: saline) is reported as 107 % of control and 100 % of control and the T/C (dose: 6.0 mg/kg/injection, schedule: Q01DX010 (ip), vehicle: saline) is reported as 100 % of control. The T/C [1] was 92 % of control, the T/C [5] was 112 % of control and the T/C [2] was 94 % of control. The T/C [3] was 94 % of control.

For CN(N=O)C(=O)NC(C=O)C(O)C(O)C(O)CO (stereo unspecified), the T/C (dose: 50.0 mg/kg/injection, schedule: Q01DX Z (ip), vehicle: saline) was 111 % of control and the T/C (dose: 100.0 mg/kg/injection, schedule: Q01DX Z (ip), vehicle: saline) was 122 % of control.

For CN(C)/N=N/c1nc[nH]c1C(N)=O, the T/C (dose: 25.0 mg/kg/injection, schedule: Q01DX010 (ip), vehicle: saline) was 100 % of control, the T/C (dose: 50.0 mg/kg/injection, schedule: Q01DX010 (ip), vehicle: saline) was 88 % of control and the T/C (dose: 100.0 mg/kg/injection, schedule: Q01DX010 (ip), vehicle: saline) was 94 % of control and 100 % of control. The T/C (dose: 200.0 mg/kg/injection, schedule: Q01DX010 (ip), vehicle: saline) was 100 % of control.

With [N-]=[N+]=CC(=O)NCC(=O)NN the T/C (dose: 125.0 mg/kg/injection, schedule: Q01DX Z (ip), vehicle: other) was 96 % of control, the T/C (dose: 250.0 mg/kg/injection, schedule: Q01DX Z (ip), vehicle: other) was 98 % of control and the T/C (dose: 500.0 mg/kg/injection, schedule: Q01DX Z (ip), vehicle: other) was 92 % of control.
